Experimental data published in US20240059658A1 (Emory University, priority 2019, published 2024).

Columns and labels:
EU-1 = assay: WST cytotoxicity assay, cancer cell EU-1; format: cell-based, human; conditions: Homo sapiens, EU-1, EU-1; no other cell line named in the cell; read-out: Cancer cell (EU-1) cytotoxicity IC50
Experimental: This study used two ALL cell lines (EU-1 and EU-3) and three NB cell lines (NB-1643, SHEP1 and LA1-55N). All 5 cancer cell lines were established from pediatric ALL or NB patients and were well-characterized for their expression of MDM2 and p53-status, as reported previously. All cell lines were grown in standard culture medium (RPMI 1640 containing 10% FBS, 2 mmol/L L-glutamine, 50 U penicillin and 50 μg/mL streptomycin) at 37° C. in a humidified atmosphere containing 5% CO2.
The cytotoxic effect of MX 69 and MX69 analogs on cancer cells was determined using the water-soluble tetrazolium salt (WST) assay. Briefly, cells cultured in 96-well microtiter plates were treated with different concentrations of AQ-101 for a 20-h period. WST (25 μg/well) was then added and incubation continued for an additional 4 h, after which optical density (OD) was read with a microplate reader (test wavelength of 450 nm; reference wavelength of 620 nm).

MDM2 = molecular target: T1, MDM2 (Homo sapiens, UniProt Q00987); assay: MDM2 reduction / expression (Western blot); format: cell-based; conditions: words or +/− grades, key not given
T1 construct: ubiquitination of endogenous MDM2 in EU-1 cells; endogenous in cells; host or cells: EU-1 (ALL) cells
Experimental: Cells were lysed in a buffer composed of 50 mM Tris, pH 7.6, 150 mM NaCl, 1% Nonidet P-40, 10 mM sodium phosphate, 10 mM NaF, 1 mM sodium orthovanadate, 2 mM phenylmethylsulfonyl fluoride (PMSF), […], 10 μg/mL leupeptin and 10 μg/mL pepstatin. After centrifugation, the clarified cell lysate was separated from the pellet of cell debris, and then incubated with 15 μL Protein G/Protein A-agarose and 1 μg of antibodies, overnight at 4° C. For the Western blot, the resulting cell lysates or immunoprecipitates were resolved by SDS-PAGE. They were then transferred to a nitrocellulose filter and probed with the specific antibodies as listed in the supplemental Materials section. Finally, proteins were visualized with a chemiluminescent detection system.

T1 sequence (Q00987 whole entry): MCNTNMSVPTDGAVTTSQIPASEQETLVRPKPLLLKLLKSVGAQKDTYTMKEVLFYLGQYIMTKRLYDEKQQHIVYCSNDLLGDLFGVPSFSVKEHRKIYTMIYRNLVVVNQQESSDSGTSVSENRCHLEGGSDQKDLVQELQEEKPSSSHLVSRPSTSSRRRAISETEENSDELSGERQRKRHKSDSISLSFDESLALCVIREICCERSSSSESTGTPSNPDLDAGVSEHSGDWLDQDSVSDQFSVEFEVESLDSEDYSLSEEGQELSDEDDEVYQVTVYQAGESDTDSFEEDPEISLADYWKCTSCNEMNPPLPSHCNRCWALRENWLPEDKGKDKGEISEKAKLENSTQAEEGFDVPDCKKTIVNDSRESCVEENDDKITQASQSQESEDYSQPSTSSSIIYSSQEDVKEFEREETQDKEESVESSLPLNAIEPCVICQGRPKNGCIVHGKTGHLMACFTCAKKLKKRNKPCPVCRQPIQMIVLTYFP

| Structure (SMILES) | IC50 (EU-1) | MDM2 reduction (MDM2) |
| --- | --- | --- |
| CC(C)c1ccc(C2Nc3ccc(S(=O)(=O)Nc4cccc(C(C)O)c4)cc3[C@H]3OCC[C@@H]23)cc1 (stereo partly drawn) [Compound 69L116] | 120 nM | No MDM2 |
| Cc1ccc(NS(=O)(=O)c2ccc3c(c2)C(=O)CC(c2ccc(C(=O)C(C)C)cc2)N3)cc1Cl (stereo not drawn) [Compound 69L107, N-(3-chloro-4-methylphenyl)-2-(4-isobutyrylphenyl)-4-oxo-1,2,3,4-tetrahydroquinoline-6-sulfonamide] | 930 nM | inhibition |
| Cc1cccc(NS(=O)(=O)c2ccc3c(c2)C(=O)CC(c2ccc(C(=O)C(C)C)cc2)N3)c1 (stereo not drawn) [Compound 69L99, 2-(4-isobutyrylphenyl)-4-oxo-N-(m-tolyl)-1,2,3,4-tetrahydroquinoline-6-sulfonamide] | 230 nM | inhibition |
| CCCC(=O)c1ccc(C2Nc3ccc(S(=O)(=O)Nc4ccc(C)c(C)c4)cc3[C@H]3OCC[C@@H]23)cc1 (stereo partly drawn) [Compound 69L72] | 2940 nM | No MDM2 |
| Cc1ccc(NS(=O)(=O)c2ccc3c(c2)[C@H]2C=CC[C@H]2[C@H](c2ccc(C(=O)C(C)C)cc2)N3)cc1C [Compound 69L80] | 2660 nM | No MDM2 |
| CC(=O)c1cccc(C2CC(=O)c3cc(S(=O)(=O)Nc4ccc(F)c(C)c4)ccc3N2)c1 (stereo not drawn) [Compound 69L109, 2-(3-acetylphenyl)-N-(4-fluoro-3-methylphenyl)-4-oxo-1,2,3,4-tetrahydroquinoline-6-sulfonamide] | 100 nM | No MDM2 |
| CC(C)C(=O)c1ccc(C2CC(=O)c3cc(S(=O)(=O)Nc4ccc(Cl)c(Cl)c4)ccc3N2)cc1 (stereo not drawn) [Compound 69L100, N-(3,4-dichlorophenyl)-2-(4-isobutyrylphenyl)-4-oxo-1,2,3,4-tetrahydroquinoline-6-sulfonamide] | 1870 nM | No MDM2 |
| Cc1cc(NS(=O)(=O)c2ccc3c(c2)C(=O)CC(c2ccc(C(=O)C(C)C)cc2)N3)ccc1F (stereo not drawn) [Compound 69L108, N-(4-fluoro-3-methylphenyl)-2-(4-isobutyrylphenyl)-4-oxo-1,2,3,4-tetrahydroquinoline-6-sulfonamide] | 420 nM | inhibition |
| O=S(=O)(Nc1ccccc1)c1ccc2c(c1)[C@H]1OCC[C@H]1[C@H](C1CCCCC1)N2 [Compound 69L66] | 2560 nM | No MDM2 |
| O=S(=O)(Nc1ccc(Cl)c(Cl)c1)c1ccc2nc(C3CCCCC3)ccc2c1 [Compound 69L105] | 3120 nM | No MDM2 |
| Cc1ccc(NS(=O)(=O)c2ccc3c(c2)C2OCC[C@H]2C(c2ccc(C(=O)c4ccccc4)cc2)N3)cc1C (stereo in doubt) [Compound 69L54] | 3220 nM | inhibition |
| Cc1ccc(NS(=O)(=O)c2ccc3c(c2)[C@H]2OCC[C@H]2[C@H](C2CCNCC2)N3)cc1C [Compound 69L55] | 1640 nM | No MDM2 |
| CC(=O)c1cccc(C2CC(=O)c3cc(S(=O)(=O)Nc4ccc5c(c4)CCO5)ccc3N2)c1 (stereo not drawn) [Compound 69L123, 2-(3-acetylphenyl)-N-(2,3-dihydrobenzofuran-5-yl)-4-oxo-1,2,3,4-tetrahydroquinoline-6-sulfonamide] | < 100 nM | inhibition |
| Cc1cccc(NS(=O)(=O)c2ccc3c(c2)[C@H]2OCC[C@H]2[C@H](c2ccc(C(=O)C(C)C)cc2)N3)c1 [Compound 69L95] | 1420 nM | inhibition |
| Cc1ccc(NS(=O)(=O)c2ccc3c(c2)[C@H]2OCC[C@H]2[C@H](C2CCC(C(C)C)CC2)N3)cc1C (stereo partly drawn) [Compound 69L56, N-(3,4-dimethylphenyl)-4-(4-isopropylcyclohexyl)-2,3,3a,4,5,9b-hexahydrofuran[3,2-c]quinolone-8-sulfonamine] | 10200 nM | inhibition |
| Cc1ccc(NS(=O)(=O)c2ccc3c(c2)C2OCC[C@H]2C(c2cccc(C(=O)C(C)C)c2)N3)cc1C (stereo partly drawn) [Compound 69L94] | 3560 nM | No MDM2 |
| Cc1cc(NS(=O)(=O)c2ccc3c(c2)[C@H]2OCC[C@H]2C(c2ccc(C(=O)C(C)C)cc2)N3)ccc1F (stereo partly drawn) [Compound 69L79] | 2910 nM | No MDM2 |
| CC(=O)c1cccc(NS(=O)(=O)c2ccc3c(c2)[C@H]2OCC[C@H]2C(c2cccc(C(C)=O)c2)N3)c1 (stereo in doubt) [Compound 69L103, N,4-bis(3-acetylphenyl)-2,3,3a,4,5,9b-hexahydrofuro[3,2-c]quinoline-8-sulfonamide] | 970 nM | No MDM2 |
| Cc1ccc(NS(=O)(=O)c2ccc3c(c2)[C@H]2OCC[C@H]2C(c2ccc(C(=O)C(C)C)cc2)N3)cc1Cl (stereo partly drawn) [Compound 69L73, N-(3-chloro-4-methylphenyl)-4-(4-isobutyrylphenyl)-2,3,3a,4,5,9b-hexahydrofuran[3,2-c]quinolone-8-sulfonamide] | 1560 nM | No MDM2 |
| CC(=O)c1ccc(NS(=O)(=O)c2ccc3c(c2)[C@H]2OCC[C@H]2C(c2cccc(C(C)=O)c2)N3)cc1 (stereo in doubt) [Compound 69L101, 4-(3-acetylphenyl)-N-(4-acetylphenyl)-2,3,3a,4,5,9b-hexahydrofuro[3,2-c]quinoline-8-sulfonamide] | 1800 nM | inhibition |

| Structure (SMILES) | IC50 (EU-1) | MDM2 reduction (MDM2) |
| --- | --- | --- |
| CC(C)C(=O)c1ccc(C2Nc3ccc(S(=O)(=O)Nc4ccc5c(c4)CCO5)cc3[C@H]3OCC[C@@H]23)cc1 (stereo partly drawn) [Compound 69L117] | 300 nM | No MDM2 |
| CC(C)C(=O)c1ccc(C2Nc3ccc(S(=O)(=O)Nc4ccc(Cl)c(Cl)c4)cc3[C@H]3OCC[C@@H]23)cc1 (stereo partly drawn) [Compound 69L76] | 5590 nM | – |
| Cc1ccc(N(C)S(=O)(=O)c2ccc3c(c2)[C@H]2OCC[C@H]2[C@H](c2ccc(C(=O)C(C)C)cc2)N3)cc1C (stereo in doubt) [Compound 69L133, N-(3,4-dimethylphenyl)-4-(4-isobutyrylphenyl)-N-methyl-2,3,3a,4,5,9b-hexahydrofuro[3,2-c]quinoline-8-sulfonamide] | 1580 nM | – |
| CC(C)C(=O)c1ccc(C2Nc3ccc(S(=O)(=O)Nc4cccc5c4COC5=O)cc3[C@H]3OCC[C@@H]23)cc1 (stereo partly drawn) [Compound 69L146] | 3810 nM | – |
| COC(=O)c1ccc([C@H]2Nc3cc(Cl)c(S(=O)(=O)Nc4ccc(C)c(C)c4)cc3[C@H]3OCC[C@@H]23)cc1 [Compound 69L25] | > 50000 nM | – |
| CC(C)C(=O)c1ccc(C2Nc3ccc(S(=O)(=O)Nc4ccc(Br)c(Br)c4)cc3[C@H]3OCC[C@@H]23)cc1 (stereo partly drawn) [Compound 69L74] | 5230 nM | – |
| CC(C)C(=O)c1ccc(C2Nc3ccc(S(=O)(=O)Nc4cccc(N(C)C)c4)cc3[C@H]3OCC[C@@H]23)cc1 (stereo partly drawn) [Compound 69L141] | 7500 nM | – |
| C=CC(=O)c1ccc(C2Nc3ccc(S(=O)(=O)Nc4ccc(C)c(C)c4)cc3[C@H]3OCC[C@@H]23)cc1 (stereo partly drawn) [Compound 69L71] | 30000 nM | – |
| CC(=O)c1ccc(C2Nc3ccc(S(=O)(=O)Nc4cccc(C(C)=O)c4)cc3[C@H]3OCC[C@@H]23)cc1 (stereo partly drawn) [Compound 69L110] | 270 nM | – |
| CC(=O)Nc1ccc(C2Nc3ccc(S(=O)(=O)Nc4ccc(C)c(C)c4)cc3C3OCC[C@@H]23)cc1 (stereo partly drawn) [Compound 69L51] | 4500 nM | – |
| COC(=O)c1ccc([C@@H]2Nc3cc(Cl)c(S(=O)(=O)Nc4ccc(C)c(C)c4)cc3[C@H]3C=CC[C@H]32)cc1 [Compound 69L22] | 19300 nM | – |
| Cc1ccc(NS(=O)(=O)c2ccc3c(c2)[C@H]2OCC[C@H]2C(c2ccc(C(=O)O)cc2)N3)cc1C (stereo partly drawn) [Compound 69L4] | > 50000 nM | – |
| CCc1cccc(NS(=O)(=O)c2ccc3c(c2)C(=O)C(F)C(c2cccc(C(=O)C(C)C)c2)N3)c1 (stereo not drawn) [Compound 69L168] | 340 nM | – |
| Cc1ccc(NS(=O)(=O)c2ccc3c(c2)[C@H]2C=CC[C@H]2[C@H](c2ccc(S(C)(=O)=O)cc2)N3)cc1C [Compound 69L21] | 6180 nM | – |
| CC(=O)c1cccc(NS(=O)(=O)c2ccc3c(c2)[C@H]2OCC[C@H]2C(c2ccc(C(C)C)cc2)N3)c1 (stereo partly drawn) [Compound 69L115] | 560 nM | – |
| Cc1cc(NS(=O)(=O)c2ccc3c(c2)[C@H]2OCC[C@H]2C(c2ccc(C(=O)C(C)C)cc2)N3)ccc1Cl (stereo partly drawn) [Compound 69L77] | 6290 nM | – |
| Cc1ccc(NS(=O)(=O)c2ccc3c(c2)C2CCC[C@H]2[C@H](c2ccc(C(O)C(C)C)cc2)N3)cc1C (stereo partly drawn) [Compound 69L86] | 3770 nM | – |
| Cc1ccc(NS(=O)(=O)c2ccc3c(c2)[C@H]2c4ccccc4C[C@H]2[C@H](c2ccc(Br)cc2)N3)cc1C [Compound 69L7] | > 50000 nM | – |
| COc1cccc(NS(=O)(=O)c2ccc3c(c2)C(=O)CC(c2cccc(C(=O)N(C)C)c2)N3)c1 (stereo not drawn) [Compound 69L159, 3-(6-(N-(3-methoxyphenyl)sulfamoyl)-4-oxo-1,2,3,4-tetrahydroquinolin-2-yl)-N,N-dimethylbenzamide] | 650 nM | – |
